Laboratory results taken from patent EP0373216A1, “CEPHALOSPORIN COMPOUNDS OR THEIR SALTS, PROCESS FOR THEIR PREPARATION, AND PARMACEUTICAL COMPOSITIONS” (TEIJIN LIMITED, priority 1987, dated 1988).
Converted amounts (≈) assume the structure as drawn.

What was measured:
[1] = tested on: P. morganii IFO 3445; test: In vitro antibacterial activity, agar disc dilution method; assay type: cell-based; details: Morganella morganii, IFO3445; P. morganii IFO 3445; Mueller Hinton agar, 10^6/ml, 37°C for 16 hours; read-out: minimum growth inhibitory concentration (MIC)
Experimental: (§1) An in vitro antibacterial activity was measured by an agar disc dilution method.
(§2) Varied test bacteria were cultivated overnight in triptophane-soybroth. A Mueller Hinton agar containing the compound of this invention in varied concentrations was streaked with one platinum loopful of each of the bacteria (number of living cells 10^6/ml).

[2] = tested on: E. cloacae 963; test: as above; assay type: cell-based; details: Enterobacter cloacae; E. cloacae 963; Mueller Hinton agar, 10^6/ml, 37°C for 16 hours; read-out: minimum growth inhibitory concentration (MIC)
Experimental: as §1, §2

[3] = tested on: S. pyogenes Cook; test: as above; assay type: cell-based; details: Streptococcus pyogenes; S. pyogenes Cook; Mueller Hinton agar, 10^6/ml, 37°C for 16 hours; read-out: minimum growth inhibitory concentration (MIC)
Experimental: as §1, §2

[4] = tested on: B. subtilis ATCC 6633; test: as above; assay type: cell-based; details: Bacillus subtilis, ATCC6633; B. subtilis ATCC 6633; Mueller Hinton agar, 10^6/ml, 37°C for 16 hours; read-out: minimum growth inhibitory concentration (MIC)
Experimental: as §1, §2

[5] = tested on: P. aeruginosa NCTC 1049; test: as above; assay type: cell-based; details: Pseudomonas aeruginosa, NCTC1049; P. aeruginosa NCTC 1049; Mueller Hinton agar, 10^6/ml, 37°C for 16 hours; read-out: minimum growth inhibitory concentration (MIC)
Experimental: as §1, §2

[6] = tested on: E. coli K12C600; test: as above; assay type: cell-based; details: Escherichia coli; E. coli K12C600; Mueller Hinton agar, 10^6/ml, 37°C for 16 hours; read-out: minimum growth inhibitory concentration (MIC)
Experimental: as §1, §2

[7] = tested on: M. euteus ATCC 9341; test: as above; assay type: cell-based; details: M. euteus ATCC 9341; Mueller Hinton agar, 10^6/ml, 37°C for 16 hours; read-out: minimum growth inhibitory concentration (MIC)
Experimental: as §1, §2

[8] = tested on: S. aureus Terajima; test: as above; assay type: cell-based; details: Staphylococcus aureus; S. aureus Terajima; Mueller Hinton agar, 10^6/ml, 37°C for 16 hours; read-out: minimum growth inhibitory concentration (MIC)
Experimental: as §1, §2

[9] = tested on: P. rettgeric IFO3850; test: as above; assay type: cell-based; details: P. rettgeric IFO3850; Mueller Hinton agar, 10^6/ml, 37°C for 16 hours; read-out: minimum growth inhibitory concentration (MIC)
Experimental: as §1, §2

[10] = tested on: K. pneumoniae PC I 602; test: as above; assay type: cell-based; details: Klebsiella pneumoniae, PCI602; K. pneumoniae PC I 602; Mueller Hinton agar, 10^6/ml, 37°C for 16 hours; read-out: minimum growth inhibitory concentration (MIC)
Experimental: as §1, §2

[11] = tested on: P. vulgalis OX-19; test: as above; assay type: cell-based; details: P. vulgalis OX-19; Mueller Hinton agar, 10^6/ml, 37°C for 16 hours; read-out: minimum growth inhibitory concentration (MIC)
Experimental: as §1, §2

[12] = tested on: S. marcescens I AM 1184; test: as above; assay type: cell-based; details: Serratia marcescens, IAM1184; S. marcescens I AM 1184; Mueller Hinton agar, 10^6/ml, 37°C for 16 hours; read-out: minimum growth inhibitory concentration (MIC)
Experimental: as §1, §2

[13] = tested on: S. typhic 901; test: as above; assay type: cell-based; details: Mueller Hinton agar, 10^6/ml, 37°C for 16 hours, read-out: minimum growth inhibitory concentration (MIC)
Experimental: as §1, §2

[14] = tested on: S. enteritidis G14; test: as above; assay type: cell-based; details: Salmonella enterica; S. enteritidis G14; Mueller Hinton agar, 10^6/ml, 37°C for 16 hours; read-out: minimum growth inhibitory concentration (MIC)
Experimental: as §1, §2

[15] = tested on: alkali phosphatase (derived from calf intestines); test: Conversion by alkali phosphatase, analyzed by liquid chromatography; assay type: in vitro ADME; details: 2 mg in 1 ml glycine buffer pH 7.0, 20U alkali phosphatase, 37°C for 1 hour, liquid chromatography RP-18, UV 260 nm
Experimental: 2 mg of the captioned compound was dissolved in 1 ml of a glycine buffer having pH of 7.0, and 20U of commercial alkali phosphatase (derived from calf intestines) was charged. The solution was kept at 37°C for 1 hour, and then analyzed by liquid chromatography [column: RP-18, elution solvent: a water/methanol solvent mixture, detection: UV wavelength 260 nm].

SMILES	MIC [1] [µg/mL]	MIC [2] [µg/mL]	MIC [3] [µg/mL]	MIC [4] [µg/mL]	MIC [5] [µg/mL]	MIC [6] [µg/mL]	MIC [7] [µg/mL]	MIC [8] [µg/mL]	MIC [9] [µg/mL]	MIC [10] [µg/mL]	MIC [11] [µg/mL]	MIC [12] [µg/mL]	MIC [13] [µg/mL]	MIC [14] [µg/mL]	Rf value of the main peak compared with the 6,7-dihydroxy-2-isoquinoliniummethyl compound (compound of Example 1) [15]
Nc1nc(/C(=N/Oc2ccc(-c3ccccc3)cc2)C(=O)N[C@@H]2C(=O)N3C(C(=O)[O-])=C(C[n+]4ccc5cc(O)c(O)cc5c4)CS[C@H]23)cs1 [Compound IV, (6R,7R)-7-[(Z)-2-(2-amino-1,3-thiazol-4-yl)-2-(p-phenylphenoxy)iminoacetamide]-3-(6,7-dihydroxy-2-isoquinolinium)methyl-3-cephem-4-carboxylate]	< 0.01	< 0.01	0.4 (≈ 0.576 µM)	1.6 (≈ 2.3 µM)	0.8 (≈ 1.15 µM)	0.02 (≈ 0.0288 µM)	0.8 (≈ 1.15 µM)	1.6 (≈ 2.3 µM)	< 0.01	0.02 (≈ 0.0288 µM)	< 0.01	< 0.01	< 0.01	0.02 (≈ 0.0288 µM)	
CC(=O)Oc1cc2cc[n+](CC3=C(C(=O)[O-])N4C(=O)[C@@H](NC(=O)/C(=N\Oc5ccccc5)c5csc(N)n5)[C@H]4SC3)cc2cc1OC(C)=O [Compound IX, (6R,7R)-7-[(Z)-2-(2-amino-1,3-thiazol-4-yl)-2-phenoxyiminoacetamide]-3-(6,7-diacetoxy-2-isoquinolinium)methyl-3-cephem-4-carboxylate]	< 0.01	0.02 (≈ 0.0285 µM)	0.4 (≈ 0.569 µM)	0.8 (≈ 1.14 µM)	0.1 (≈ 0.142 µM)	0.01 (≈ 0.0142 µM)	1.6 (≈ 2.28 µM)	1.6 (≈ 2.28 µM)	< 0.01	< 0.01	< 0.01	< 0.01	< 0.01	0.02 (≈ 0.0285 µM)	
Nc1nc(/C(=N/Oc2ccccc2)C(=O)N[C@@H]2C(=O)N3C(C(=O)[O-])=C(C[n+]4cc(C(=O)O)c5cc(O)c(O)cc5c4)CS[C@H]23)cs1 [Compound VI, (6R,7R)-7-[(Z)-2-(2-amino-1,3-thiazol-4-yl)-2-phenoxyiminoacetamide]-3-(4-carboxy-6,7-dihydroxy-2-isoquinolinium)methyl-3-cephem-4-carboxylate]	0.02 (≈ 0.0302 µM)	0.05 (≈ 0.0755 µM)	0.8 (≈ 1.21 µM)	1.6 (≈ 2.41 µM)	3.1 (≈ 4.68 µM)	0.02 (≈ 0.0302 µM)	0.8 (≈ 1.21 µM)	3.1 (≈ 4.68 µM)	0.02 (≈ 0.0302 µM)	0.02 (≈ 0.0302 µM)	< 0.01	< 0.01	< 0.01	< 0.01	
Nc1nc(/C(=N/Oc2cccc(C(=O)O)c2)C(=O)N[C@@H]2C(=O)N3C(C(=O)[O-])=C(C[n+]4ccc5cc(O)c(O)cc5c4)CS[C@H]23)cs1 [Compound VIII]	0.03 (≈ 0.0453 µM)	0.1 (≈ 0.151 µM)	0.8 (≈ 1.21 µM)	0.3 (≈ 0.453 µM)	0.2 (≈ 0.302 µM)	0.05 (≈ 0.0755 µM)	1.6 (≈ 2.41 µM)	3.1 (≈ 4.68 µM)	0.02 (≈ 0.0302 µM)	0.03 (≈ 0.0453 µM)	0.02 (≈ 0.0302 µM)	0.1 (≈ 0.151 µM)	0.03 (≈ 0.0453 µM)	0.03 (≈ 0.0453 µM)	
Nc1nc(/C(=N/Oc2ccc(CC(=O)O)cc2)C(=O)N[C@@H]2C(=O)N3C(C(=O)[O-])=C(C[n+]4ccc5cc(O)c(O)cc5c4)CS[C@H]23)cs1 [Compound V]	< 0.01	0.05 (≈ 0.0739 µM)	0.8 (≈ 1.18 µM)	1.6 (≈ 2.36 µM)	0.05 (≈ 0.0739 µM)	0.02 (≈ 0.0296 µM)	1.6 (≈ 2.36 µM)	1.6 (≈ 2.36 µM)	< 0.01	0.03 (≈ 0.0443 µM)	< 0.01	0.8 (≈ 1.18 µM)	0.02 (≈ 0.0296 µM)	0.02 (≈ 0.0296 µM)	
Nc1nc(/C(=N/Oc2ccccc2)C(=O)N[C@@H]2C(=O)N3C(C(=O)[O-])=C(C[n+]4ccc5cc(O)c(O)cc5c4)CS[C@H]23)ns1 [Compound XI, (6R,7R)-[(Z)-2(5-amino-1,2,4-thiadiazol-3-yl)-2-phenoxyiminoacetamide]-3-(6,7-dihydroxy-2-isoquinolinium)methyl-3-cephem-carboxylate]	< 0.01	< 0.01	0.05 (≈ 0.0807 µM)	0.4 (≈ 0.646 µM)	0.2 (≈ 0.323 µM)	0.01 (≈ 0.0161 µM)	0.01 (≈ 0.0161 µM)	0.2 (≈ 0.323 µM)	< 0.01	< 0.01	< 0.01	< 0.01	< 0.01	< 0.01	
CC(=O)Oc1cc2cc[n+](CC3=C(C(=O)[O-])N4C(=O)[C@@H](NC(=O)/C(=N\Oc5ccccc5)c5csc(N)n5)[C@H]4SC3)cc2cc1O [Compound X]	< 0.01	< 0.01	0.8 (≈ 1.21 µM)	0.8 (≈ 1.21 µM)	0.1 (≈ 0.151 µM)	< 0.01	1.6 (≈ 2.42 µM)	1.6 (≈ 2.42 µM)	< 0.01	< 0.01	< 0.01	< 0.01	< 0.01	0.01 (≈ 0.0151 µM)	
Nc1nc(/C(=N/Oc2ccccc2)C(=O)N[C@@H]2C(=O)N3C(C(=O)[O-])=C(C[n+]4ccc5cc(O)c(OS(=O)(=O)O)cc5c4)CS[C@H]23)cs1 [Example 6, (6R,7R)-7-[(Z)-2-(2-amino-1,3-thiazol-4-yl-2-phenoxyimino)acetamide]-3-(6,7-hydroxy-7-sulfonyloxy-2-isoquinolinium)methyl-3-cephem-4-carboxylate]															confirmed to agree
